Measured values as given in US11136561B2, “Polypeptide for the enzymatic detoxification of zearalenone, isolated polynucleotide, and associated additive, use and method” (priority 2014, dated 2021).

T1: fusion protein containing the hormone-dependent activation domain of the human estrogen receptor alpha and the DNA binding domain of the yeast Gal4 protein (Homo sapiens, UniProt P03372)
T1 construct: expressed in transfected cells; host or cells: Saccharomyces cerevisiae YZHB817 (PJ69-4a derivative, pdr5 snq2) carrying expression vector pTK103
T1 sequence (P03372 311-595 limits assumed): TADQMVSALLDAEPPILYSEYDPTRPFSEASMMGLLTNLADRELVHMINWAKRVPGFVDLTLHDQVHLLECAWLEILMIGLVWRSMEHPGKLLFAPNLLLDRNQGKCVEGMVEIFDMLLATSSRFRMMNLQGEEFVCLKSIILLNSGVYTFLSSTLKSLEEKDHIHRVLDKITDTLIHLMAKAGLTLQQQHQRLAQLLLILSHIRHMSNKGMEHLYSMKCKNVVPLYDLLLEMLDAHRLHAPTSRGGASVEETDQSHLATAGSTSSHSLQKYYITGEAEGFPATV


Key:
[1] = target: T1, fusion protein containing the hormone-dependent activation domain of the human estrogen receptor alpha and the DNA binding domain of the yeast Gal4 protein; type: cell-based; conditions: for Concentration necessary to express 7.5 relative units of beta-galactosidase: GAL7-lacZ reporter, 18 hours at 30° C.
Source text: The purified metabolite iZOM as described in Example 2 was used to determine its toxicity, expressed by its estrogenic activity, and compared to that of zearalenone.
For measuring the estrogenic activity, a specially prepared reporter yeast strain, YZHB817 (Bachmann, H.: Phenotypic detection of zearalenone in Saccharomyces cerevisiae. Master thesis BOKU Vienna, 2003) was used. This strain is derived from yeast-two hybrid strain PJ69-4a (MATa trp1-901 leu2-3,112 ura3-52 his3-200 gal4-(deleted) gal80(deleted) LYS2::GAL1-HIS3 GAL2-ADE2 met2::GAL7-lacZ) (James et al. 1996, Genetics; 144(4), 1425-1436). PJ69-4a was further developed by the disruption of the ABC transporters PDR5 and SNQ2. […] This strain was subsequently transformed with an expression vector (pTK103) that triggers the production of a fusion protein containing the hormone-dependent activation domain of the human estrogen receptor alpha and the DNA binding domain of the yeast Gal4 protein, in order to obtain the strain YZHB817.
In the presence of estrogenic substances, the yeast strain YZHB817 induces the expression of the GAL7 lacZ reporter gene, whose product, the enzyme beta-galactosidase, is easy to measure by the hydrolyzation of the chromogenic substrate ONPG (ortho-nitrophenyl-beta-galactoside) at 420 nm (Current Protocols in Molecular Biology, Chapter 13, Yeast (Eds. Lundblad V, Struhl, K.)).
[…] of the estrogenic test solution (ZEN or iZOM) were dissolved in 50% ethanol, mixed with 1.9 ml of the yeast culture of strain […] in SC-TRP medium at a cell density of OD600=0.1, and incubated for 18 hours at 30° C. and 180 rpm. After this, the OD600 of the culture was determined, and the cell pellet (10 min, 13 krpm) of 1 ml was resuspended in […] Z buffer and permeabilized with 25 μl chloroform. […] The supernatant was measured at 420 nm, and the relative units (based on the used cell amount) were calculated as: RU=(OD420×1000)/(OD600×incubation time in min)

[2] = cited from earlier work
mammals = conditions: cited from earlier work
[3] = extrusion and oxidants, e.g. 16 hours at 80° C. with 10% hydrogen peroxide solution; cited from earlier work
bovine = conditions: cited from earlier work
pigs = conditions: cited from earlier work
[4] = cited from earlier work; remark: listed apart in the source
[5] = test system: polypeptide of SEQ ID No. 1; test: Metabolization of ZEN by yeast strain YZGA515 expressing the polypeptide of SEQ ID No. 1 (test setup), HPLC-MS; type: cell-based, Saccharomyces cerevisiae; conditions: expressed in yeast strain YZGA515
Source text: The yeast strain YZGA515 (Saccharomyces cerevisiae modified by inactivation of the ABC transporter gene PDR5 (Poppenberger et al. 2003, J. Biol. Chem., 278 (48) 47905-14) for the enhanced absorption of zearalenone (ZEN)) was transformed by the plasmid pCS57 using standard techniques. pCS57 is a plasmid derived from the yeast expression plasmid pADH-FW (Mitterbauer et. al 2002, Appl. Environ. Microbiol.; 68 (3), 1336-1346) with LEU2 as selection marker and ADH1 promoter.
In the test setup, the yeast strain YZGA515 was transformed with the pCS57 vector additionally containing the polynucleotide of SEQ ID No. 4 as BamHI-Xhol fragment after the strongly constitutive ADH1 promoter (alcohol dehydrogenase 1). This enabled the formation of the polypeptide of SEQ ID No. 1.
The yeast strain YZGA515 with the empty vector (pADH-FW without the polynucleotide of SEQ ID No.4) was transformed as negative control.
The transgenic yeasts (test setup and negative control) were cultivated in SC-LEU medium (Sherman 1991, Methods Enzymol., 194, 3-21), centrifuged and resuspended in fresh SC-LEU medium at a concentration of 2 mg/l ZEN, wherein a cell density of OD600=4 was adjusted in both cases. […]
In a further test setup, the metabolite iZOM was additionally measured quantitatively. […]

| Molecule | Concentration necessary to express 7.5 relative units of beta-galactosidase [1] | Toxicity lower by a factor (than zearalenone) ([1]; toxicity expressed by estrogenic activity) | Time after oral administration at which ZEN is detectable in blood [2] | ZEN concentration in feeds leading to development disorders (mammals) | Reduction of ZEN content [3] | ZEN concentration made responsible for miscarriages (bovine) | ZEN concentration in feeds that may lead to hyper-estrogenicity (pigs) | oral LD50 [4] | Conversion of ZEN to iZOM [5] |
| --- | --- | --- | --- | --- | --- | --- | --- | --- | --- |
| CC1CCCC(=O)OCCC/C=C/c2cc(O)cc(O)c2C(=O)O1 (stereo not shown) [iZOM] | about 500 ppb | about 100 | – | – | – | – | – | – | – |
| C[C@H]1CCCC(=O)CCC/C=C/c2cc(O)cc(O)c2C(=O)O1 [ZEN, (2E,11D)-15,17-dihydroxy-11-methyl-12-oxabicyco[12.4.0]octadeca-1(18), 2,14,16-tetraene-7,13-dione] | approximately 45 ppb | – | 30 min | above 0.5 ppm | 83.9% | 12 ppm | above 1.5 ppm | up to 20,000 mg/kg body weight | – |
| polypeptide of SEQ ID No. 1: monooxygenase converting the keto group in position 7 of zearalenone into an ester group (protein, Trichosporon mycotoxinivorans, monooxygenase converting the keto group in position 7 of zearalenone into an ester group) MTLEAIPVPEETPAQTVPTAPLSEEEREALKHRYRAERDKRIREDGIKQYRSLEGLLDVDDTKDPYTPVKPREPLNDHVDFLFLGGGFAGLIVCSHLKKTGFNDFRIIESGGDFGGVWYWNRFPGAMCDTAAMVYLPLLEETGTVPSAKYVRGPEILAHAQRIARTFDLYPHALFHTHLESLTWDEEQGVWKVKTRQGDSFTATHVGMGTGPLNKPHLPGIPGIEKFKGKAMHTARWDFATTGGGWNGEVMEGLKDKRVGVIGTGATGIQAIPELGRDSGELFVFQRTPSAVAVRGNHPIDPEWFASLDKGWQTKWNRNFIQLMSSGMAENDYVRDGWTDGVKRITARMFAEAAKAGRDPSTLSFDDFLAAYHLSDDEYMTAVRNRTNEVVNDPKTADGLKAWYRQFCKRPCFHDEFLATFNRPTVHLVDTNGQGVTEVDETGVWANGQHYDLDIIVYATGFEFNSEWTYKSGMEVYGRDGLTLTQAWKDGMKTYHGMHINGFPNLFMLQFQQGSSLASNITSNYVDSGYTIAAILNKKKELGAKTVEVPADVQSKWIEHLLTANKGLIGGPECTPGYYNNEGQEEGLKEKLNGARYPAGSLAFFDYIAEWRTNGKFEGLAFDGKQIAVQ | – | – | – | – | – | – | – | – | able to convert ZEN to its metabolite iZOM |
